# How the values were obtained:
# [1] = system: Trypanosoma cruzi; assay: Antitrypanosomal activity against Trypanosoma cruzi Tulahuen 2 at 25 uM after 5 days; type: functional; conditions: Tulahuen 2, 120 h, read-out: GI
# [2] = system: Trypanosoma cruzi; assay: Antitrypanosomal activity against Trypanosoma cruzi Tulahuen 2 after 5 days; type: functional; conditions: Tulahuen 2, 120 h, read-out: ID50 (the source's name)
# [3] = Therapeutic index, ID50 for human THP1 cells to ID50 for Trypanosoma cruzi; type: cell-based; conditions: THP-1 cells versus Trypanosoma cruzi, read-out: TI
# [4] = Cytotoxicity against human THP1 cells after 48 hrs; type: cell-based; conditions: THP-1 cells, read-out: ID50
Structure (SMILES),inhibition of growth at 25 µM [1] [%],IC50 [2] [µM],selectivity ratio [3],CC50 at 48 h [4] [µM]
C/C(=N\NC(=S)N1CCCCC1)c1ccc([N+](=O)[O-])cc1,12,> 25,,
CNC(=S)N/N=C(\C)c1ccc([N+](=O)[O-])cc1,31,> 25,> 16,> 400
C/C(=N\NC(=S)N(C)C)c1ccc([N+](=O)[O-])cc1,100,0.28,> 1430,> 400
O=C(Cn1ccnc1[N+](=O)[O-])NCc1ccccc1 [BENZNIDAZOLE],100,7.4,> 40,> 300
CC1CS(=O)(=O)CCN1/N=C/c1ccc([N+](=O)[O-])o1 (stereo not drawn) [NIFURTIMOX],100,7.7,> 38,> 300

# — ChEMBL document CHEMBL1156673, “4-nitroacetophenone-derived thiosemicarbazones and their copper(II) complexes with significant in vitro anti-trypanosomal activity” (Eur J Med Chem, 2008)
